Patent US20020111274A1, “1-alkyl-3-[1-(substituted phenyl) benzotriazol-6-yl] uracils” (BASF Aktiengesellschaft, priority 2000, published 2002)

## CCc1cccc(-n2nnc3cc(F)c(-n4c(=O)cc(C(F)(F)F)[nH]c4=O)cc32)c1 [Example 13, 3-[1-(3-ethylphenyl)-5-fluoro-1H-1,2,3-benzotriazol-6-yl]-6-(trifluoromethyl)-2,4(1H,3H)-pyrimidinedione]
  melting point: 160 °C
